According to patent publication US8907153B2, “Adhesive peel-forming formulations for dermal delivery of drugs and methods of using the same” (Nuvo Research Inc., priority 2004, dated 2014):
Like-named read-outs stand apart in the source and are kept apart here.

Settings: hairless mouse skin, 35° C., mean and SD of three

## CCCN1CCCC[C@H]1C(=O)Nc1c(C)cccc1C [Ropivacaine]
Saturated in Glycerin
  Average flux (steady-state flux of ropivacaine): 1.2 ± 0.7 mcg/cm^2/h
Saturated in ISA (isostearic acid)
  Average flux (steady-state flux of ropivacaine): 11 ± 2 mcg/cm^2/h
Saturated in Mineral Oil
  Average flux (steady-state flux of ropivacaine): 8.9 ± 0.6 mcg/cm^2/h
Saturated in Span 20
  Average flux (steady-state flux of ropivacaine): 26 ± 8 mcg/cm^2/h
Saturated in Tween 20
  Average flux (steady-state flux of ropivacaine): 2.4 ± 0.1 mcg/cm^2/h
